ChEMBL document CHEMBL1143522, “Antimalarial benzo[c]phenanthridines” (Bioorg Med Chem Lett, 2005)

Tests used:
Plasmodium falciparum [1] = assay: In vitro inhibitory concentration against chloroquine-sensitive Plasmodium falciparum K39; type: functional, organism-based
Plasmodium falciparum [2] = assay: […] against Plasmodium falciparum strains K39 and V1/S; type: functional
Plasmodium falciparum [3] = assay: In vitro inhibitory concentration against chloroquine-resistant Plasmodium falciparum V1/S; type: functional, organism-based
[4] = In vitro toxicity against B82 fibroblast cells; type: cell-based; conditions: mouse, read-out: LD50 (the source's name)
Plasmodium falciparum [5] = assay: In vitro inhibition against chloroquine-resistant Plasmodium falciparum V1/S; Range 0.1-0.4 uM; type: functional, organism-based
Plasmodium falciparum [6] = assay: In vitro inhibition against chloroquine-sensitive Plasmodium falciparum K39; Range 0.1-0.4 uM; type: functional, organism-based

Question: With `COc1cc2c(ccc3c4cc(OC)c(OC)cc4c[n+](C)c23)cc1O.CS(=O)(=O)[O-]` as the molecule, how does the IC50 (Plasmodium falciparum [1]) read?
Answer: 2300 nM

Question: What about the Ratio (Plasmodium falciparum [2]) of the same molecule?
Answer: 0.8

Question: What about the IC50 (Plasmodium falciparum [3]) of the same molecule?
Answer: 1800 nM

Question: Which results are given for `CCOc1cc2ccc3c4cc(OC)c(OC)cc4c[n+](C)c3c2cc1OC.CS(=O)(=O)[O-]`?
Answer: IC50 (Plasmodium falciparum [1]): 800 nM; Ratio (Plasmodium falciparum [2]): 0.9; IC50 (Plasmodium falciparum [3]): 740 nM

Question: Which results are given for `COc1cc2c[n+](C)c3c4cc(OC)c(OC)cc4c4occc4c3c2cc1OC.CS(=O)(=O)[O-]`?
Answer: IC50 (Plasmodium falciparum [1]): 9 nM; Ratio (Plasmodium falciparum [2]): 11.3; IC50 (Plasmodium falciparum [3]): 110 nM

Question: For `CCOc1cc2c3cc(OC)c(OC)cc3c[n+](C)c2c2cc(OC)c(O)cc12.CS(=O)(=O)[O-]`, which IC50 (Plasmodium falciparum [1]) is on record?
Answer: 120 nM

Question: What about the Ratio (Plasmodium falciparum [2]) of the same molecule?
Answer: 1

Question: What about the IC50 (Plasmodium falciparum [3]) of the same molecule?
Answer: 120 nM

Question: With `CC[n+]1cc2cc(OC)c(OC)cc2c2ccc3cc(OC)c(OC)cc3c21.[I-]` as the molecule, how does the IC50 (Plasmodium falciparum [1]) read?
Answer: 90 nM

Question: And the Ratio (Plasmodium falciparum [2])?
Answer: 1.3

Question: What about the IC50 (Plasmodium falciparum [3]) of the same molecule?
Answer: 120 nM

Question: Which IC50 (Plasmodium falciparum [1]) does the source give for `CCOc1cc2c3cc(OC)c(OC)cc3c[n+](CC)c2c2cc(OC)c(OC)cc12.[I-]` here?
Answer: 40 nM

Question: What about the Ratio (Plasmodium falciparum [2]) of the same molecule?
Answer: 1.4

Question: What about the IC50 (Plasmodium falciparum [3]) of the same molecule?
Answer: 50 nM

Question: And the CC50 [4]?
Answer: 3.2 µg/mL

Question: With `COc1cc2c[n+](C)c3c4cc(OC)c(OC)cc4ccc3c2cc1OC.CS(=O)(=O)[O-]` as the molecule, how does the IC50 (Plasmodium falciparum [1]) read?
Answer: 70 nM

Question: And the Ratio (Plasmodium falciparum [2])?
Answer: 4.2

Question: And the IC50 (Plasmodium falciparum [3])?
Answer: 300 nM

Question: What does the source list for `COc1cc2c[n+](C)c3c4cc(OC)c(OC)cc4c(OCC4OCC(Br)([N+](=O)[O-])CO4)cc3c2cc1OC.CS(=O)(=O)[O-]` (stereo not drawn)?
Answer: IC50 (Plasmodium falciparum [1]): 1000 nM; Ratio (Plasmodium falciparum [2]): 1.9; IC50 (Plasmodium falciparum [3]): 1840 nM

Question: Which IC50 (Plasmodium falciparum [1]) does the source give for `COc1cc2ccc3c4cc(OC)c(SC)cc4c[n+](C)c3c2cc1OC.CS(=O)(=O)[O-]` here?
Answer: 190 nM

Question: What about the Ratio (Plasmodium falciparum [2]) of the same molecule?
Answer: 4.7

Question: What about the IC50 (Plasmodium falciparum [3]) of the same molecule?
Answer: 900 nM

Question: What does the source list for `CCOc1cc2c3cc(OC)c(OC)cc3c[n+](C)c2c2cc(OC)c(OC)cc12.CS(=O)(=O)[O-]`?
Answer: IC50 (Plasmodium falciparum [1]): 260 nM; Ratio (Plasmodium falciparum [2]): 1; IC50 (Plasmodium falciparum [3]): 260 nM

Question: Which IC50 (Plasmodium falciparum [5]) does the source give for `COc1cc2c[n+](C)c3c4cc5c(cc4ccc3c2cc1OC)OCO5` [NITIDINE CHLORIDE] here?
Answer: 400 nM

Question: What about the IC50 (Plasmodium falciparum [6]) of the same molecule?
Answer: 400 nM
